Patent US7053178B2, “Synthetic peptides and kits for diagnosis of anti-phospholipid syndrome” (Yeda Research Development Co., LTD, priority 1998, dated 2006)
Where no end group is shown, it is not given here.

Legend:
[1] = test system: affinity purified anti-β2GPI Abs from APS patients; test: Fractionation of affinity purified anti-β2GPI Abs on peptide columns; assay type: binding, human
sera of APS patients = test: ELISA binding of APS patient sera to biotinylated peptides; set-up: species or system human; conditions: APS patients (N = 43), sera 1:50
Procedure: ELISA streptavidin-coated plates were incubated with biotinylated A, B or C, control peptide D or cocktail of peptides A+B+C. Following blocking with 5% bovine sera, the patient sera were added at dilution of 1:50. The bound antibodies were detected by administration of anti-human IgG or IgM alkaline phosphatase and appropriate substrate.
(§1) Binding of sera from patients with primary APS or secondary to SLE to the studied peptides was performed by ELISA. 96-well ELISA plates were coated with streptavidin, blocked with gelatin, incubated with biotinylated peptides (A,B,C,D) and blocked with gelatin. Sera of patients with APS or SLE were added at dilution of 1:50 and the percent of binding was probed with anti-human IgM or IgG conjugated to alkaline phosphatase. Half plate was coated with streptavidin without addition of peptide (for non-specific binding).

sera of SLE patients = test: ELISA binding of SLE patient sera to biotinylated peptides; set-up: species or system human; conditions: SLE patients (N = 72), sera 1:50
Procedure: as §1

[2] = test system: affinity purified anti-β2GPI IgM and IgG from APS patients; test: Competition ELISA: specificity of binding of patient anti-β2GPI IgM and IgG to peptides; set-up: species or system human; conditions: competition with specific peptide versus cocktail of the other peptides
Procedure: FIGS. 6A–6C show specificity of binding of affinity purified anti-β2GPI IgM and IgG antibodies from APS patients to the inhibitory monomer peptides A, B and C by ELISA, following preincubation of the tested affinity purified immuno-globulin with or without the peptide or the β2GPI molecule, in fluid phase. FIG. 6A: Affinity purified anti-β2GPI IgM and IgG that recognize peptide A were tested for binding to peptide A following preincubation of the purified antibodies with peptide A, cocktail of peptides B+C+D or β2GPI. Each point represents one patient. FIG. 6B: Affinity purified anti-β2GPI IgM and IgG that recognize peptide B were tested for binding to peptide B following preincubation with peptide B, cocktail of peptides A+C+D or β2GPI. Each point represents one patient. FIG. 6C: Affinity purified anti-β2GPI IgM and IgG that recognize peptide C were tested for binding to peptide C following preincubation with peptide C, cocktail of peptides A+B+D or β2GPI. Each point represents one patient.
The specificity of the recognition of the studied anti-β2GPI epitopes A, B, C by anti-β2GPI Abs from APS patients was confirmed by competition assays in which specificity of binding of anti-β2GPI IgM and IgG from patients with APS to the inhibitory peptides was examined. Anti-β2GPI IgG and IgM affinity purified from APS patients (affinity purification of the antibodies was carried out by incubation of cardiolipin lyposomes with patients' sera overnight at 4° C. with rotation following sedimentation of the complexes (30000 rpm), elution of the bound Abs by KI 1M, extraction from the lyposomes by chloroform, and separation of the total anti-β2GPI IgM, IgG Abs into the different isotypes employing either anti-human-IgM-Sepharose or anti-human-IgG-Sepharose (Pharmacia)) were preincubated with β2GPI (triangles), specific peptide monomer (circles) or a cocktail of the other peptides as monomers (squares), and tested for their binding to the specific biotinylated peptide-coated ELISA plates.

sera of normal donors = test: ELISA binding of normal donor sera to biotinylated peptides; set-up: species or system human; conditions: Normal donors (N = 100)
Procedure: as §1

anti-β2GPI ILA-1 mAb = test: Competition ELISA: inhibition of ILA-1 mAb binding to β2GPI; set-up: species or system human; conditions: 10 μM peptide concentration
Procedure: FIGS. 1A–1C are graphs showing inhibition of the anti-β2GPI ILA-1, ILA-3 and G-3 mAbs binding to β2GPI by competition assays using increasing concentrations of the inhibitory monomer peptides A, B and C, respectively, and of unrelated peptide D as control. The percent of inhibition was calculated as follows: % inhibition=O.D control−O.D with inhibitor/O.D control×100. Each point represents mean±SD of three different experiments.
(e) Inhibition of anti-β2GPI mAb binding to β2GPI by the inhibitory peptides. For competition ELISA tests, the anti-β2GPI mAbs (10 μg/ml) were preincubated (overnight at 4° C.) with varying concentrations of the peptides. The competition reaction was then transferred to β2GPI-coated γ-irradiated ELISA plates (Nunc), and the assay continued as described above. The percentage of inhibition was calculated as follows: % inhibition=O.D control −O.D with inhibitor/O.D control×100.
(2a) The specificity of interaction of the mAbs with the corresponding synthetic peptides A, B, C and control peptide D as monomers, was assessed by inhibition experiments as described in Materials and Methods, sections (e) and (f).

[3] = test system: sera of mice immunized with β2GPI; test: ELISA binding of sera of β2GPI-immunized mice to peptides; set-up: species or system BALB/c mice; conditions: biotinylated peptide monomers on streptavidin plates, anti-mouse IgG
Procedure: Sera of immunized mice were screened for the presence of mouse antibodies to peptide A, B and C, by ELISA, with streptavidin-coated plates followed by incubation with biotinylated peptide A, B, and C. Blocked plates (3% gelatin) were exposed to different dilutions of the sera. The binding was probed by anti-mouse IgG alkaline phosphatase.
BALB/c mice were immunized (day 0) in the hindfootpads with 10 μg β2GPI in Complete Freund's Adjuvant (CFA), Three weeks after, the mice received a booster injection of β2GPI in PBS. Sera of the mice (anti-β2GPI) were used to screen peptides for the presence of B cell epitopes, as follows: 96-well ELISA plates were coated with streptavidin overnight at 4° C., followed by incubation with biotinylated peptide monomers A, B, C, or D, β2GPI or BSA in PBS (100 μM) for 2 hours at room temperature. The ELISA plates were blocked with 3% gelatin, and the mouse sera were added thereto at different dilutions. Binding was probed with goat anti-mouse IgG alkaline phosphatase.

Sequence	Fraction of anti-β2GPI Abs (in percentage) recognizing the peptide ([1]; APS patient no. 1)	Fraction of anti-β2GPI Abs (in percentage) recognizing the peptide ([1]; APS patient no. 2)	Fraction of anti-β2GPI Abs (in percentage) recognizing the peptide ([1]; APS patient no. 3)	Fraction of anti-β2GPI Abs (in percentage) recognizing the peptide ([1]; APS patient no. 4)	Fraction of anti-β2GPI Abs (in percentage) recognizing the peptide ([1]; APS patient no. 5)	Fraction of anti-β2GPI Abs (in percentage) recognizing the peptide ([1]; APS patient no. 6)	Fraction of anti-β2GPI Abs (in percentage) recognizing the peptide ([1]; APS patient no. 7)	Fraction of anti-β2GPI Abs (in percentage) recognizing the peptide ([1]; APS patient no. 8)	Fraction of anti-β2GPI Abs (in percentage) recognizing the peptide ([1]; APS patient no. 9)	Fraction of anti-β2GPI Abs (in percentage) recognizing the peptide ([1]; APS patient no. 10)	Percent of sera recognizing the peptide, IgG (sera of APS patients)	Percent of sera recognizing the peptide, IgM (sera of APS patients)	Percent of sera recognizing the peptide, IgG (sera of SLE patients)	Percent of sera recognizing the peptide, IgM (sera of SLE patients)	specificity of recognition of the peptide by anti-β2GPI IgM and IgG from APS patients [2]	Percent of sera recognizing the peptide, IgG (sera of normal donors)	Percent of sera recognizing the peptide, IgM (sera of normal donors)	inhibition of ILA-1 mAb binding to β2GPI (anti-β2GPI ILA-1 mAb)	reaction with antibodies from mice immunized with β2GPI [3]	Percent of sera recognizing the peptide, IgM (sera of APS patients; listed as peptide A)
CATLRVYKGG [Peptide C]	0.4 percentage	3 percentage	39 percentage	22 percentage	1.8 percentage	23 percentage	5 percentage	4.2 percentage	0.5 percentage	16.4 percentage	16.3%	27.9%	2.8%	14%	recognized specifically	1%	0%	11%	reacted specifically	–
KDKATFGTHDG [Peptide B]	37 percentage	15 percentage	0.5 percentage	43 percentage	29 percentage	14 percentage	18 percentage	33 percentage	1.3 percentage	7.9 percentage	20.9%	25.6%	11%	12.5%	bind specifically	0%	1%	10%	reacted specifically	–
NTLKTPRVGG [Peptide A]	23 percentage	0.7 percentage	1.4 percentage	29 percentage	0.9 percentage	29 percentage	37 percentage	2.8 percentage	12 percentage	0.6 percentage	7%	20.9%	5.5%	11%	recognized specifically	0%	2%	97%	reacted specifically	21%
